Results on seven molecules are retold here after patent US4390523A, “Sorbose for inhibiting fermentation acids in the mouth” (priority 1972, dated 1983).

Read-outs that look alike come from different tables or passages of the source.

Data set [1] deals with oral bacteria (dilute human saliva). The data set can be described thus: Formation of acids and lowering of pH by fermentation by oral bacteria (Table III). It is filed as cell-based. The following applies: for pH of medium / NaOH necessary for neutralization: 1 ml of 18% solution in 10 ml medium; for pH of medium: saliva, 37° C.; for NaOH necessary for neutralization: N/40 NaOH; for formation of acids / acidification (conclusion) / lowering of the pH to: medium inoculated with dilute saliva. As to the method:
A series of tubes containing 10 ml of a sugarless nutritive culture medium at pH 7 was prepared. These tubes were sterilized by passing them through an autoclave at 120° C. for 20 minutes.
1 ml of sterile water was introduced into a first series of five tubes to make a control series.
1 ml of a sterile 18% solution of dextrose (weight/volume=W/V) was introduced into a second series of five tubes.
1 ml of a sterile 18% solution of saccharose (W/V) was introduced into a third series of five tubes.
1 ml of a sterile 18% solution of sorbose (W/V) was introduced into a fourth series of five tubes.
The sterile solutions of dextrose, saccharose and sorbose were obtained by sterilizing filtration by the usual technique.
A dilution of human saliva was prepared for immediate use and four tubes of each series were inoculated with the same volume of dilute saliva.
The formation of acids was followed by electric measurement of the pH and by determination of the quantity of acids formed; this determination was effected with a N/40 sodium/hydroxide solution, phenolphthalein being used as a neutralization indicator; a first determination was made before incubation, the following four determinations after incubations of 3, 6, 10 and 24 hours, respectively, at 37° C.
The results are assembled in Table III (pH value and value of the number of ml of sodium hydroxide necessary for neutralization).

Data set [2] shares this test system. As to conditions: background statement; cited from earlier work.
For data set [3] the following is noted: cited from earlier work.
The conditions of data set [4]: printed as "hydroscopic"; cited from earlier work.

For `OC[C@H]1O[C@@](CO)(O[C@H]2O[C@H](CO)[C@@H](O)[C@H](O)[C@H]2O)[C@@H](O)[C@@H]1O` [saccharose], the pH of medium was 7.0 in data set [1] (0 hours); 6.90 in data set [1] (3 hours); 6.90 in data set [1] (6 hours); 6.10 in data set [1] (10 hours); 5.10 in data set [1] (24 hours). Further, the “NaOH necessary for neutralization” value in data set [1] (0 hours) is 2.50 mL; in data set [1] (3 hours), 2.45 mL; in data set [1] (6 hours) it was 2.40 mL; in data set [1] (10 hours) it was 3.20 mL; in data set [1] (24 hours), 6.10 mL. In data set [1], the “formation of acids / acidification (conclusion)” value is “distinct acidification”. Further, in data set [1], the “lowering of the pH to” value was 5.1. Also, the cariogenic properties result in data set [2] is “has cariogenic properties”. In data set [2], the “formation of acids and lowering of pH under the action of mouth bacteria (general statement)” value is “give rise to a lowering of the pH and a considerable production of acids”.
Regarding `OC[C@@H](O)[C@@H](O)[C@H](O)[C@H](O)CO` [mannitol], the laxative effect entry in data set [3] (in vivo) is on record as “laxative in high doses”.
Turning to `O=C(CO)[C@@H](O)[C@H](O)[C@H](O)CO` [levulose, reference compound], in data set [4], the hygroscopicity entry is recorded as “very hydroscopic”.
For the molecule `OC[C@@H](O)[C@H](O)[C@@H](O)CO` [xylitol], the laxative effect entry in data set [3] (high doses) is recorded as “laxative in high doses”.
Regarding `OC[C@@H](O)[C@@H](O)[C@H](O)[C@@H](O)CO` [sorbitol], in data set [3] (in vivo), the laxative effect result is “laxative in high doses”.
`O=C[C@H](O)[C@@H](O)[C@H](O)[C@H](O)CO` [dextrose]: the pH of medium is listed as 7.0 in data set [1] (0 hours); 6.90 in data set [1] (3 hours); 6.80 in data set [1] (6 hours); 6.50 in data set [1] (10 hours); 5.30 in data set [1] (24 hours). The “NaOH necessary for neutralization” value was 2.50 mL in data set [1] (0 hours); 2.25 mL in data set [1] (3 hours); 2.40 mL in data set [1] (6 hours); 2.80 mL in data set [1] (10 hours); 5.70 mL in data set [1] (24 hours). For the same molecule, the “formation of acids / acidification (conclusion)” value in data set [1] was “distinct acidification”. Besides, in data set [1], the “lowering of the pH to” value came out at 5.3. Also, in data set [2], the “formation of acids and lowering of pH under the action of mouth bacteria (general statement)” value is “give rise to a lowering of the pH and a considerable production of acids”.
Consider cyclamates, for which the harmfulness entry in data set [3] (in vivo) is reported as “subject of serious reservations on the part of the medical profession in regards to their harmfulness”.
